The values that follow come from patent US20110053900A1, “PROGESTERONE ANTAGONISTS SUCH AS CDB-4124 IN THE TREATMENT OF BREAST CANCER” (Repros Therapeutics inc, priority 2008, published 2011).

Series [1] concerns the target T1, glucocorticoid receptor (rbGR) (Oryctolagus cuniculus, UniProt P59667).
T1 construct: cytosol containing PR or GR were prepared in TEGMD buffer; from tissue; host or cells: thymus of estradiol-primed immature rabbits (cytosol)
T1 sequence (P59667 1-772): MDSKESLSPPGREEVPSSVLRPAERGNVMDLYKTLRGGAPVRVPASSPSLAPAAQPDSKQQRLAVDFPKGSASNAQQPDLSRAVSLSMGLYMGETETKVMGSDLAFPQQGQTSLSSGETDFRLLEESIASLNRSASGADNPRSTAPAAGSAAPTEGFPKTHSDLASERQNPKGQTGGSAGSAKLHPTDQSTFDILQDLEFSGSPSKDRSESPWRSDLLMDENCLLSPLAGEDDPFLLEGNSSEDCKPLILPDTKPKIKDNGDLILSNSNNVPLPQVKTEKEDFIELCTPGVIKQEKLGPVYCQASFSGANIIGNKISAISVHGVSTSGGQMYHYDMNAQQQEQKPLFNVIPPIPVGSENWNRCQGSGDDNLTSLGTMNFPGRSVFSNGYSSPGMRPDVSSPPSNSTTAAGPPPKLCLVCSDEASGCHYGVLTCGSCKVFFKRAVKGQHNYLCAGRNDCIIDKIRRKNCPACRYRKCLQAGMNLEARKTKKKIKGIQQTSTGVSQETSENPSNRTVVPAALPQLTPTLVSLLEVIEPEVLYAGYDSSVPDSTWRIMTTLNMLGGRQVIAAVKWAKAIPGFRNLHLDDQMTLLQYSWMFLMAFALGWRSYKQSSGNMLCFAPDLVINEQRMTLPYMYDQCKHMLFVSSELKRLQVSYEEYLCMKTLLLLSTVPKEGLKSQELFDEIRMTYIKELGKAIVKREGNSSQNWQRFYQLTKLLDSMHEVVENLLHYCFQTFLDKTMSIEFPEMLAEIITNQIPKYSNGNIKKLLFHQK
Description: Glucocorticoid receptor binding. Set-up: species or system rabbit. On the procedure:
Certain antiprogestins were tested in receptor-binding assays for their ability to bind rabbit progesterone receptor (rbPR) and glucocorticoid receptor (rbGR). […] For PR binding, the cytosol was incubated with 6 nM 1,2-[^3H]progesterone (50.0 Ci/mmole) and competitors were added at concentrations from 2 to 100 nM. For binding to GR, the cytosol was incubated with 6 nM 6,7-[^3H]-dexamethasone (40 Ci/mmol) and test compounds were added at concentrations from 20 to 100 nM. After overnight incubation at 4° C., bound and unbound [^3H] steroids were separated by addition of dextran-coated charcoal and centrifugation at 2100×g for 15 min at 4
C. Supernatants containing the [3H]-steroid receptor complexes were decanted into vials containing 4 ml Optifluor (Packard Instrument Co.), vortexed, equilibrated in a liquid scintillation counter for 30 minutes and then counted for 2 minutes. […] The standards for the PR and GR assays were unlabeled progesterone and dexamethasone, respectively.

The subject of series [2] is progesterone receptor (PR). Description: Expression of progesterone receptor in tumors (IHC). The format is in vivo, rat. Conditions: 10 mg/kg. On the procedure: The tumors that were evaluated for proliferation and apoptosis were also assessed for expression of estrogen and progesterone receptors by immunohistochemistry (IHC). The percentage of cells positive for ER and PR was determined and analyzed. Tumors were grouped into four different categories: tumors with 0% of cells expressing ER, tumors with 10% of cells expressing ER, tumors with 15 to 30% of cells expressing ER and tumors with 30-50% of cells expressing ER. In general, untreated tumors consistently expressed ER. Out of 12 tumors analyzed, all 12 expressed ER. Four out of these 12 tumors contained 30-50% ER-positive cells.
Untreated tumors consistently expressed PR (12/12 tumors). In general, untreated tumors expressed both receptors, ER and PR, therefore it is possible that many malignant tumors are expressors of these two transcription factors. […] In general, long term treatment with CDB-4124 tends to drive down the level of PR in tumors, whereas progesterone tends to work in the opposite direction. Thus, tumors maintain progesterone responsiveness in the presence of progesterone.

The nature of series [3]: Animal weight during the study. In kind it is in vivo. Conditions: weighed weekly, 27-week study period. An excerpt:
The weights of the control animals were compared to those receiving hormonal treatment to better assess toxicity, especially that due to CDB-4124. The animals were weighed weekly during the 27-week study period.

Series [4] in a line: Estrogen levels in human females during administration. The format is in vivo. Conditions: administration periods of at least six months.
Series [5] is described as follows: Serum corticosterone by ELISA. In kind it is in vivo, rat. Conditions: 20 or 10 mg/kg. On the procedure:
The animals were assessed three times for their levels of progesterone: initially, when they were about to go on treatment; a second time after 21 days of treatment; and finally after treatment at sacrifice which was 2-4 days after the last s.c. injection. All blood samples were taken by heart puncture; serum was prepared and held frozen at −40° C. The levels of the steroid hormones progesterone, cortisol, and corticosterone were determined by ELISA.
The concentrations of steroid hormones were determined three times during the study: before the beginning of treatments, after 21 days of treatment and finally after treatment at sacrifice which was 2-4 days after the last s.c. injection. All samples were taken by heart puncture. Serum was obtained and held frozen at −40° C. The levels of steroid hormones were determined by ELISA.
Corticosterone is the most abundant glucocorticoid in rats. The effects of the SPRMs on cortisol may be secondary to strong effects on corticosterone. […] The levels of corticosterone were 10-40 times higher than the levels of cortisol. However, almost no difference between groups with respect to mean corticosterone levels was observed. […] There was no statistical difference in levels of corticosterone between animals with tumors and without tumors at either 21-days (p=0.94, t-test, two-tailed) or at sacrifice (p=0.37, t-test, two-tailed).
For orientation: ELISA stands for enzyme-linked immunosorbent assay.

Turning to `CC#C[C@]1(O)CC[C@H]2[C@@H]3CCC4=CC(=O)CCC4=C3[C@@H](c3ccc(N(C)C)cc3)C[C@@]21C` [RU 486, mifepristone, reference compound], in series [1], the “anti-glucocorticoid receptor activity / glucocorticoid receptor binding (in words)” value was “moderately active in glucocorticoid receptor binding”. Further, the “PR expression in tumors (in words)” value in series [2] was “neutral for PR”.
For `COCC(=O)[C@@]1(OC(C)=O)CC[C@H]2[C@@H]3CCC4=CC(=O)CCC4=C3[C@@H](c3ccc(N(C)C)cc3)C[C@@]21C` [CDB-4124, 21-methoxy-17α-acetoxy-11β-(4 N,N-dimethylaminophenyl)-19-norpregna-4,9-diene-3,20-dione], in series [3], the “toxicity by animal weight, treated vs. control (in words)” value is on record as “not toxic, even at a high dose level”. Also, the “estrogen levels in human females (in words)” value in series [4] was “maintain estrogen levels in the normal range”. The “effect on serum corticosterone (in words)” value in series [5] is on record as “no strong effect”.
